Drawing on patent US10398783B2, “Antiproliferative compounds and conjugates made therefrom” (BRISTOL-MYERS SQUIBB COMPANY, priority 2016, dated 2019), this text covers IC50 for 22 compounds.

Assay type in all cases: cell-based, human
Experiment [1] relates to mesothelioma (H226) cancer cell line. Description: 72 hr ATP luminescence cell proliferation inhibition assay, H226. The method, then: (§1) Proliferation inhibition was measured using a 72 hr ATP luminescence assay (Cheng et al., U.S. Pat. No. 8,394,922 B2 (2013)). The antiproliferative effects are reported as IC50's, i.e., the concentration of compound that produces a 50% inhibitory effect on cell proliferation.

In experiment [2] the test system is colon cancer (HCT116) cell line. Description: 72 hr ATP luminescence cell proliferation inhibition assay, HCT116. The method, then: as §1
Experiment [3] deals with ovarian cancer (OVCAR3) cell line. Description: 72 hr ATP luminescence cell proliferation inhibition assay, OVCAR3. As for the experimental part: as §1
Experiment [4] relates to gastric (stomach) cancer (N87) cell line. Description: 72 hr ATP luminescence cell proliferation inhibition assay, N87. To be noted: N87 cells. As for the experimental part: as §1

The term IC50 denotes the concentration needed to halve the response being measured. A lower IC50 goes with greater potency. `COc1cc2c(cc1OCCCC(=O)Nc1cc(C(=O)Nc3ccc4c(c3)oc3ccccc34)n(C)c1)N=C[C@@H]1Cc3ccccc3CN1C2=O` [(Ib-33)]: the IC50 is < 0.004 nM in experiment [1] (H226 cells), < 0.004 nM in experiment [2] (HCT116 cells), 0.052 nM in experiment [3] (OVCAR3 cells) and < 0.004 nM in experiment [4].
Take `COc1cc2c(cc1OCCCC(=O)Nc1cc(C(=O)Nc3ccc4c(c3)Cc3cc(N)ccc3-4)n(C)c1)N=C[C@@H]1Cc3ccccc3CN1C2=O` [(Ib-34)]: the IC50 in experiment [1] (H226 cells) is < 0.004 nM; in experiment [2] (HCT116 cells), < 0.004 nM; in experiment [3] (OVCAR3 cells), 0.025 nM; in experiment [4], 0.006 nM.
For the compound `COc1ccc(NC(=O)c2cc(NC(=O)CCCOc3cc4c(cc3OC)C(=O)N3Cc5ccccc5C[C@H]3C=N4)cn2C)nc1` [(Ib-35)], the IC50 in experiment [1] (H226 cells) was < 0.004 nM; in experiment [2] (HCT116 cells) it was 0.047 nM; in experiment [3] (OVCAR3 cells) it was 0.11 nM; in experiment [4] it was < 0.004 nM.
On to `COc1cc2c(cc1OCCCC(=O)Nc1cc(C(=O)Nc3cccc(OCc4ccccc4)n3)n(C)c1)N=C[C@@H]1Cc3ccccc3CN1C2=O` [(Ib-36)], for which the 50% inhibitory concentration (IC50) amounted to 22 nM in experiment [1] (H226 cells), 3.7 nM in experiment [2] (HCT116 cells), 2.2 nM in experiment [3] (OVCAR3 cells) and 3.7 nM in experiment [4].
On to `COc1cc2c(cc1OCCCC(=O)Nc1cc(C(=O)Nc3cnc4c(c3)ncn4C)n(C)c1)N=C[C@@H]1Cc3ccccc3CN1C2=O` [(Ib-37)], for which the IC50 in experiment [1] (H226 cells) came out at 1.2 nM; in experiment [2] (HCT116 cells), 1.7 nM; in experiment [3] (OVCAR3 cells), 5.2 nM; in experiment [4], 1.6 nM.
With `COC(=O)c1cc(NC(=O)CCCOc2cc3c(cc2OC)C(=O)N2Cc4ccccc4C[C@H]2C=N3)cn1C` [(Ib-38)], the IC50 in experiment [1] (H226 cells) came to 1.1 nM; in experiment [2] (HCT116 cells), 1.1 nM; in experiment [3] (OVCAR3 cells) it was 0.66 nM; in experiment [4] it was 1.1 nM.
Take `COC(=O)c1cc(-c2ccc(NC(=O)c3cc(NC(=O)CCCOc4cc5c(cc4OC)C(=O)N4Cc6ccccc6C[C@H]4C=N5)cn3C)cc2)cn1C` [(Ib-39)]: the IC50 amounted to 0.006 nM in experiment [1] (H226 cells), 0.003 nM in experiment [2] (HCT116 cells), 0.011 nM in experiment [3] (OVCAR3 cells) and 0.002 nM in experiment [4].
As for `COC(=O)c1cc(NC(=O)c2cc(NC(=O)CCCOc3cc4c(cc3OC)C(=O)N3Cc5ccccc5C[C@H]3C=N4)cn2C)cn1C` [(Ib-40)], the IC50 turned out to be 0.1 nM in experiment [1] (H226 cells), 0.028 nM in experiment [2] (HCT116 cells), 0.16 nM in experiment [3] (OVCAR3 cells) and 0.09 nM in experiment [4].
As for `COc1cc2c(cc1OCCCC(=O)Nc1cc(C(=O)Nc3ccccc3)n(C)c1)N=C[C@@H]1Cc3ccccc3CN1C2=O` [(Ib-41)], the IC50 in experiment [1] (H226 cells) was determined as 0.083 nM; in experiment [2] (HCT116 cells), 0.022 nM; in experiment [3] (OVCAR3 cells), 0.053 nM; in experiment [4] it was 0.038 nM.
In the case of `COc1cc2c(cc1OCCCC(=O)Nc1cc(C(=O)NC3CC3)n(C)c1)N=C[C@@H]1Cc3ccccc3CN1C2=O` [(Ib-42)], the IC50 in experiment [1] (H226 cells) amounted to 0.49 nM; in experiment [2] (HCT116 cells), 0.38 nM; in experiment [3] (OVCAR3 cells), 0.32 nM; in experiment [4], 0.39 nM.
For `COc1cc2c(cc1OCCCC(=O)Nc1cc(C(=O)Nc3ccc(-c4ccccc4)cc3)n(C)c1)N=C[C@@H]1Cc3ccccc3CN1C2=O` [(Ib-43)], the IC50 worked out at 0.013 nM in experiment [1] (H226 cells), 0.008 nM in experiment [2] (HCT116 cells), 0.025 nM in experiment [3] (OVCAR3 cells) and 0.026 nM in experiment [4].
For `COc1cc2c(cc1OCCCC(=O)Nc1cc(C(=O)Nc3ccccn3)n(C)c1)N=C[C@@H]1Cc3ccccc3CN1C2=O` [(Ib-44)], in that order: 0.085 nM, 0.045 nM, 0.053 nM and 0.055 nM.
For `COc1cc2c(cc1OCCCC(=O)Nc1cc(C(=O)Nc3ccc(Cl)cn3)n(C)c1)N=C[C@@H]1Cc3ccccc3CN1C2=O` [(Ib-45)], the IC50 was 0.085 nM in experiment [1] (H226 cells), 0.032 nM in experiment [2] (HCT116 cells), 0.01 nM in experiment [3] (OVCAR3 cells) and 0.025 nM in experiment [4].
Consider `COc1cc2c(cc1OCCCC(=O)Nc1cc(C(=O)Nc3cccnc3)n(C)c1)N=C[C@@H]1Cc3ccccc3CN1C2=O` [(Ib-46)], for which the IC50 turned out to be 0.27 nM in experiment [1] (H226 cells), 0.13 nM in experiment [2] (HCT116 cells), 0.55 nM in experiment [3] (OVCAR3 cells) and 0.12 nM in experiment [4].
For `COc1cc2c(cc1OCCCC(=O)Nc1cc(C(=O)Nc3ccc(Cl)nc3)n(C)c1)N=C[C@@H]1Cc3ccccc3CN1C2=O` [(Ib-47)], in that order: 0.13 nM, 0.019 nM, 0.13 nM and 0.022 nM.
For `COc1cc2c(cc1OCCCC(=O)Nc1cn(C)c(C(=O)Nc3ccccc3)n1)N=C[C@@H]1Cc3ccccc3CN1C2=O` [(Ib-48)], the IC50 was 0.18 nM in experiment [1] (H226 cells), 0.039 nM in experiment [2] (HCT116 cells), 0.094 nM in experiment [3] (OVCAR3 cells) and 0.075 nM in experiment [4].
Turning to `COc1cc2c(cc1OCCCC(=O)Nc1cc(C(=O)Nc3ccc(-c4cc(-c5ncco5)n(C)c4)cc3)n(C)c1)N=C[C@@H]1Cc3ccccc3CN1C2=O` [(Ib-49)], the IC50 in experiment [1] (H226 cells) stood at 0.062 nM; in experiment [2] (HCT116 cells), 0.051 nM; in experiment [3] (OVCAR3 cells), 0.32 nM; in experiment [4], 0.16 nM.
On to `COc1cc2c(cc1OCCCC(=O)Nc1cc(C(=O)Nc3ccc(OCc4ccccc4)cc3)n(C)c1)N=C[C@@H]1Cc3ccccc3CN1C2=O` [(Ib-51)], for which the half-inhibitory concentration (IC50) is 0.11 nM in experiment [1] (H226 cells), 0.022 nM in experiment [2] (HCT116 cells), 0.7 nM in experiment [3] (OVCAR3 cells) and 0.037 nM in experiment [4].
For `COc1cc2c(cc1OCCCC(=O)Nc1cc(C(=O)Nc3ccc(N)cc3)n(C)c1)N=C[C@@H]1Cc3ccccc3CN1C2=O` [(Ib-52)], in that order: 0.3 nM, 0.28 nM, 0.63 nM and 0.45 nM.
Regarding `COc1cc(-c2ccc(NC(=O)c3cc(NC(=O)CCCOc4cc5c(cc4OC)C(=O)N4Cc6ccccc6C[C@H]4C=N5)cn3C)c(OC)c2)ccc1N` [(Ib-53)], the IC50 is 0.13 nM in experiment [1] (H226 cells), 0.098 nM in experiment [2] (HCT116 cells), 0.22 nM in experiment [3] (OVCAR3 cells) and 0.092 nM in experiment [4].
With `COc1cc2c(cc1OCCCC(=O)Nc1cc(C(=O)Nc3ccc(-c4ccc(N)cc4)cc3)n(C)c1)N=C[C@@H]1Cc3ccccc3CN1C2=O` [(Ib-54)], the IC50 in experiment [1] (Homo sapiens, NCI-H226, H226 cells) came to 0.05 nM; in experiment [2] (Homo sapiens, HCT-116, HCT116 cells), 0.007 nM; in experiment [3] (Homo sapiens, OVCAR-3, OVCAR3 cells), 0.071 nM; in experiment [4] (Homo sapiens) it was 0.027 nM.
Regarding `COC(=O)c1cc(-c2ccc(NC(=O)c3nc(NC(=O)CCCOc4cc5c(cc4OC)C(=O)N4Cc6ccccc6C[C@H]4C=N5)cn3C)cc2)cn1C` [(Ib-55)], the IC50 was 0.018 nM in experiment [1] (H226 cells), 0.004 nM in experiment [2] (HCT116 cells), 0.045 nM in experiment [3] (OVCAR3 cells) and < 0.004 nM in experiment [4].
